Assay results: publication PMC5760527, “Connexin 43 Hemichannel as a Novel Mediator of Sterile and Infectious Inflammatory Diseases” (Scientific Reports, 2018)
Where no end group is shown, it is not given here.

What was measured:
[1] = tested on: PKR phosphorylation; conditions: cited from earlier work
Source text: (§1) The establishment of HMGB1 as a critical mediator of various inflammatory diseases has prompted an on-going search for endogenous and exogenous modulators of HMGB1 secretion.

[2] = tested on: HMGB1 secretion; conditions: cited from earlier work
Source text: as §1

[3] = tested on: Cx43 GJ and hemichannel activities; conditions: cited from earlier work
Source text: The establishment of HMGB1 as a critical mediator of various inflammatory diseases has prompted an on-going search for endogenous and exogenous modulators of HMGB1 secretion. […] We thus evaluated the alteration of macrophage hemichannel activities in the absence or presence of Cx43 mimetic peptides previously shown to be capable of blocking Cx43 hemichannels. […] Because Cx43 GJ and hemichannels often co-exist in plasma membranes, a definitive elucidation of the functions of Cx43 GJ or hemichannels has been quite challenging. First, genetic deletion would eliminate both channels. Secondly, these two types of Cx channels are susceptible to a similar array of chemical blockers. Latel ...

[4] = target: T1, Cx43 EL1 peptide (Homo sapiens, UniProt P17302); assay: Surface Plasmon Resonance, Cx43 EL1 peptide; type: binding; conditions: Cx43 EL1 peptide
T1 construct: synthetic full-length Cx43 EL1 or EL2 peptide as judged by the Surface Plasmon Resonance Analysis

[5] = tested on: macrophage Cx43 hemichannel activities, RAW 264.7 cells; assay: Lucifer Yellow dye uptake, hemichannel permeability, calcium-depleted; type: cell-based, murine; conditions: LPS 0.5 μg/ml, 16 h, LY 15 min, P < 0.05 versus +LPS
Source text: Because connexon is the structural unit for both hemichannel (1 connexon) and gap junction (2 connexons from opposing cells), which are both permeable to similar molecular weight molecules, such as the Lucifer yellow (LY). Thus, the LY dye uptake could be used to determine the channel permeability of both hemichannel (as indicated by the rate of LY entry into the cells) and gap junction channels (as judged by the distance of intercellular LY diffusion). The LY dye uptake assay relied on the ability of this dye present in the extracellular milieu to cross the plasma membrane and became concentrated inside of the cell, which could be quantified by fluorescence microscopy. To determine the effects of Cx43 mimetic peptides on hemichannel permeability, RAW 264.7 cells were subjected to LPS stimulation (0.5 µg/ml, 16 h) before replacing the medium with fresh DMEM containing various Cx43 mimetic peptides, GAP26 (100 µM), TAT-GAP19 (200 µM) or P5 (20 µM). Following a brief incubation (15 min), EGTA (1 mM) was added to deplete free calcium prior to the addition of LY dye (1%). Fifteen min later, cells were fixed with 2% paraformaldehyde, and the number of LY-positive cells was counted. The ratio of LY-positive cells vs. total cell counts (DAPI staining) was used as the measurement of hemichannel permeability.

[6] = tested on: Balb/c mice, polymicrobial sepsis (CLP); assay: CLP-induced sepsis survival; type: in vivo; conditions: i.p., +6, +18 and +36 h post CLP, two weeks; for animal survival (in words): CLP, Balb/c mice; for survivors: saline 50%
Source text: This study was approved and performed in accordance with the guidelines of the Institutional Animal Care and Use Committee of the Feinstein Institute for Medical Research, Manhasset, New York, USA (Animal Protocol #2008-033, Approval date: September 10, 2014). To evaluate the effect of various Cx43 mimetic peptides on sepsis lethality, a clinically relevant animal model of sepsis induced by cecal ligation and puncture (CLP) was employed. Briefly, the cecum of Balb/c mice was ligated at about 5 mm from the cecal tip, and then punctured once with a 22-gauge needle. GAP26, TAT-GAP19 or P5 peptides were administered intraperitoneally into mice at indicated doses and time points, and animal survival rates were monitored for up to 2 wks. The Kaplan-Meier method was used to compare the differences in mortality rates between groups.

T1 sequence (P17302 45-76 limits assumed): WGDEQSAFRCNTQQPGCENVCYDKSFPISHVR

Molecule: CC1(C)[C@@H](OC(=O)CCC(=O)O)CC[C@]2(C)[C@H]3C(=O)C=C4[C@@H]5C[C@@](C)(C(=O)O)CC[C@]5(C)CC[C@@]4(C)[C@]3(C)CC[C@@H]12 [carbenoxolone]
- endotoxin-induced PKR phosphorylation [1]: effectively prevented
- PKR-mediated HMGB1 secretion [2]: effectively prevented
- blocking of Cx43 GJ and hemichannel activities ([3]; no reference given): blocking Cx43 GJ and hemichannel activities

Molecule: QPGCEN [P4]
- Kd [4]: 20 µM

Molecule: VCYDKSFPISHVR [GAP26, Cx43 mimetic peptide GAP26 (…), first extracellular loop]
- interruption of GJ formation ([3]; after prolonged application, no reference given): interruption of GJ formation after prolonged application
- inhibition of Cx43 hemichannel activities or gap junction formation [3]: inhibiting Cx43 hemichannel activities or gap junction formation
- effect on endotoxin-induced hemichannel activities (LY dye uptake) ([5]; GAP26 100 μM): significant impairment of the endotoxin-induced elevation of hemichannel activities
- animal survival (in words) [6]: reproducibly increased animal survival rates

Molecule: YGRKKRRQRRRK-QIEIKKFK [TAT-GAP19]
- effect on LY dye uptake (hemichannel activities) ([5]; TAT-GAP19 200 μM): elevated LY dye uptake
- survivors ([6]; 15 mg/kg): 60%
- survivors ([6]; 120 mg/kg): 20%
- animal survival (in words) [6]: decreased animal survival particularly when given at a comparable higher dose
